Results as given in patent US20210213104A1, “GLUCAGON AND GLP-1 CO-AGONISTS FOR THE TREATMENT OF CHRONIC KIDNEY DISEASE AND DIABETIC KIDNEY DISEASE IN TYPE 2 DIABETES” (MEDIMMUNE LIMITED, priority 2020, published 2021).
Marks after values point to notes of the source that are not given here.

Test system: subjects with T2DM and renal impairment
Assay: Phase 2a: continuous glucose monitoring (CGM)
Assay type: in vivo, human
Settings: for Percentage of Time CGM Glucose Within Target Range (70-180 mg/dL), Mean / Percentage of Time CGM Glucose Within Target Range (70-180 mg/dL), Median / Time in target range, Change from Baseline (Days −8 to −2), Mean / Time in target range, Change from Baseline (Days −8 to −2), Median / Time in target range, Difference in LS Mean Change (vs Placebo): 300 μg Dose (Days 26 to 32); for Percentage of Time CGM Glucose Within Target Range (70-180 mg/dL), Mean / Percentage of Time CGM Glucose Within Target Range (70-180 mg/dL), Median / Time in target range, Change from Baseline (Days −8 to −2), Mean / Time in target range, Change from Baseline (Days −8 to −2), Median / Time in target range, Difference in LS Mean Change (vs Placebo) / Percentage of time spent in CGM glucose range 70-180 mg/dL during treatment / Percentage of time spent in CGM glucose range >180 mg/dL during treatment: ITT; for Percentage of time spent in CGM glucose range 70-180 mg/dL during treatment / Percentage of time spent in CGM glucose range >180 mg/dL during treatment: entire dosing period
Description: Cotadutide was titrated from 50 μg up to 300 μg and administered once daily by subcutaneous (SC) injection over 32 days.
Cotadutide was administered at 50 μg once daily for 4 days, followed by 100 μg daily for 7 days, 200 μg daily for 7 days, and 300 μg daily for 14 days (n=20). Placebo was administered one daily for 32 days (n=20). Cotadutide and placebo were administered in the morning. Dosing commenced following predose baseline vital signs, blood tests (including HbA1c), an electrocardiogram (ECG), body weight measurement, and bioimpedance spectroscopy (BIS). Subjects then returned for daily dosing or remained overnight locally until Day 5, and thereafter, had visits at weekly intervals until a maintenance dose of 300 μg was established. Thus, Cotadutide or placebo was administered at the study site by study personal for the first four doses and on site on Days 5, 12, 19, and 32. At all other times, subjects preformed dosing at home.
A Freestyle Libre® Pro CGM device was used to measure interstitial glucose levels. […] Data generated by CGM was used at visits to adjust insulin doses and other treatments.
The CGM sensor, which is a small plastic circular device of 35 mm diameter and 5 mm depth, was applied to the back of the upper arm. Subjects wore the CGM sensor continuously up until the time of a sensor change, which was to occur within 14 days, and they were advised that they could bathe and shower, and swim in up to 3 m depth for up to 30 minutes while wearing the CGM sensor. When the CGM sensor was removed, a new CGM sensor could be reapplied, ideally close to the original site, but with the subject's site preference taken into account. CGM sensors were single-use only.
If a subject was unable to tolerate wearing the CGM sensor for the entire duration of the study, the sensor was removed; but the subject was to remain in the study with or without continued CGM and could instead be instructed to monitor capillary plasma glucose measurements four times per day (before meals and before bedtime) and record these levels in the diary provided.
Subjects underwent continuous glucose monitoring (CGM) starting from Day −14 to Day 40 (±5 days), with sensor changes within 14-day intervals. CGM readings were used to analyze change in average CGM glucose and glucose AUC7 d, coefficient of variation as a marker of glycemic variability, and time spent in target glucose range and hypoglycemia, to enable comparison across different dose levels.

## CCCCCCCCCCCCCCCC(=O)N[C@@H](CCC(=O)NCCCC[C@H](NC(=O)[C@H](CC(=O)O)NC(=O)[C@H](CO)NC(=O)[C@@H](NC(=O)[C@H](Cc1ccccc1)NC(=O)[C@@H](NC(=O)CNC(=O)[C@H](CCC(N)=O)NC(=O)[C@H](CO)NC(=O)[C@@H](N)Cc1c[nH]cn1)[C@@H](C)O)[C@@H](C)O)C(=O)N[C@@H](CO)C(=O)N[C@@H](CCC(=O)O)C(=O)N[C@@H](Cc1ccc(O)cc1)C(=O)N[C@@H](CC(C)C)C(=O)N[C@@H](CC(=O)O)C(=O)N[C@@H](CO)C(=O)N[C@@H](CCC(=O)O)C(=O)N[C@@H](CCCNC(=N)N)C(=O)N[C@@H](C)C(=O)N[C@@H](CCCNC(=N)N)C(=O)N[C@@H](CC(=O)O)C(=O)N[C@@H](Cc1ccccc1)C(=O)N[C@H](C(=O)N[C@@H](C)C(=O)N[C@@H](Cc1c[nH]c2ccccc12)C(=O)N[C@@H](CC(C)C)C(=O)N[C@@H](CCC(=O)O)C(=O)N[C@@H](C)C(=O)NCC(=O)NCC(=O)O)C(C)C)C(=O)O [Cotadutide]
Insulin Dose < 20 U/day
  Percentage of Time CGM Glucose Within Target Range (70-180 mg/dL), Mean: 89.31%
  Percentage of Time CGM Glucose Within Target Range (70-180 mg/dL), Median: 95.35%
  Time in target range, Change from Baseline (Days −8 to −2), Mean: 25.61%
  Time in target range, Change from Baseline (Days −8 to −2), Median: 23.18%
  Time in target range, Difference in LS Mean Change (vs Placebo): 56.7%
  Percentage of time spent in CGM glucose range 70-180 mg/dL during treatment: 89.85* %
  Percentage of time spent in CGM glucose range >180 mg/dL during treatment: 3.31%
Insulin Dose < 20 U/day, listed as MEDI0382
  Time in target range, Difference in LS Mean Change (vs Placebo): 56.73%
Insulin Dose ≥ 20 U/day
  Percentage of Time CGM Glucose Within Target Range (70-180 mg/dL), Mean: 71.69%
  Percentage of Time CGM Glucose Within Target Range (70-180 mg/dL), Median: 83.04%
  Time in target range, Change from Baseline (Days −8 to −2), Mean: 8.44%
  Time in target range, Change from Baseline (Days −8 to −2), Median: 13.31%
  Time in target range, Difference in LS Mean Change (vs Placebo): 19.6%
  Percentage of time spent in CGM glucose range 70-180 mg/dL during treatment: 73.09* %
  Percentage of time spent in CGM glucose range >180 mg/dL during treatment: 14.09* %
Insulin Dose ≥ 20 U/day, listed as MEDI0382
  Time in target range, Difference in LS Mean Change (vs Placebo): 19.59%
Total
  Percentage of Time CGM Glucose Within Target Range (70-180 mg/dL), Mean: 78.18%
  Percentage of Time CGM Glucose Within Target Range (70-180 mg/dL), Median: 83.51%
  Time in target range, Change from Baseline (Days −8 to −2), Mean: 14.50%
  Time in target range, Change from Baseline (Days −8 to −2), Median: 18.31%
  Time in target range, Difference in LS Mean Change (vs Placebo): 36.02%
  Percentage of time spent in CGM glucose range 70-180 mg/dL during treatment: 78.67%
  Percentage of time spent in CGM glucose range >180 mg/dL during treatment: 10.50%
300 μg [Days 19 to 25], all subjects
  Time in target range, difference in LS mean change as compared to placebo: 35.23%
At the 50 μg dose
  mean CGM glucose value: 133.7 mg/dL
At the 100 μg dose
  mean CGM glucose value: 127.6 mg/dL
At the 200 μg dose
  mean CGM glucose value: 131.7 mg/dL
At the 300 μg dose (Days 26 to 32)
  mean CGM glucose value: 125.4 mg/dL
Based on LS mean change
  Total glucose over each dosing period (AUC7 d) from baseline (Days −8 to −2) as compared to placebo: significantly decreased
Baseline to the end of each 7-day dosing period
  LS mean change in coefficient of variation of glucose vs placebo: no statistically significant difference
Total, listed as MEDI0382
  Percentage of time spent in CGM glucose range 70-180 mg/dL during treatment: 78.67* %
  Percentage of time spent in CGM glucose range >180 mg/dL during treatment: 10.50* %
In vivo
  percentage of time spent below 54 mg/dL vs Placebo: statistically significant greater percentage of time
  percentage of time spent below 54 mg/dL vs placebo: no clinically significant difference vs placebo
  time spent in hypoglycemia (<70 mg/dL) vs placebo, 7-day periods: no statistically significant differences
P ≤0.003, based on LS mean change
  Average glucose levels from baseline to the end of each 7-day dosing period compared to placebo: significant reductions
